Here are results for 11 compounds from article PMC11337105, “Identification of 2-(N-aryl-1,2,3-triazol-4-yl) quinoline derivatives as antitubercular agents endowed with InhA inhibitory activity” (Frontiers in Chemistry, 2024).

Converted amounts (≈) assume the structure as drawn. Bounds are passed on as bounds.

The test system of one series is MTB. The conditions noted are these: cited from earlier work.
The test system of a further series is M. tuberculosis H37Rv. Nature of the series: Antimycobacterial MIC / primary screening, MABA (microplate alamar blue assay). Format: cell-based. The conditions noted are these: Mycobacterium tuberculosis. In general terms: Resazurin is reduced to fluorescent resorufin, in cell work by metabolically active cells.
For a further series, the system named is M. abscessus. As to the kind of experiment: Antimycobacterial MIC / primary screening, MABA. The settings on record: Mycobacteroides abscessus, read-out: MIC M. abscessus. Format: cell-based.
In another series the target is MTB InhA (Mycobacterium tuberculosis, UniProt P9WGR1). As to the kind of experiment: InhA inhibition endpoint assay. Format: biochemical. The settings on record: read-out: IC50 against InhA.
MTB InhA, sequence (P9WGR1 whole entry, looked up): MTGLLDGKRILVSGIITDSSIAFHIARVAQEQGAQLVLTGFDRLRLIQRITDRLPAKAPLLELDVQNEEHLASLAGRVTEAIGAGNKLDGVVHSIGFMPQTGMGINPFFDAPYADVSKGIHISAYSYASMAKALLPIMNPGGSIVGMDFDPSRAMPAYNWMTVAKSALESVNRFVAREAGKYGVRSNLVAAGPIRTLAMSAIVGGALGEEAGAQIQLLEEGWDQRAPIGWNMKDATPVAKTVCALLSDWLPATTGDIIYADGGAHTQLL
Another series relates to M. bovis BCG. Nature of the series: microbe, parasite or virus in culture. It is filed as cell-based. The settings on record: Mycobacterium tuberculosis variant bovis BCG, read-out: MIC M. bovis BCG.
The next series concerns L929 cells. Nature of the series: Cytotoxicity, MTT protocol (ISO 10993-5:2009(E)). Format: cell-based. The settings on record: ratio to MIC against M. tuberculosis. On the procedure:
This evaluation adhered precisely to international standards (ISO 10993-5:2009(E)), employing L929 cells and the MTT protocol ([Bekier et al., 2021]). The determination of the half maximal inhibitory concentration (IC50) values was carried out for 12 out of the 13 compounds tested, considering the occurrence of derivative precipitation in the growth medium for L929 cells (Table 1). […] For two compounds (5g and 5i), the discriminatory index (IC50/MIC) was identified at the level of 20.

`Fc1cccc(-c2nc3ccccc3n2Cc2cn(-c3ccc(F)cc3F)nn2)c1` [compound VII]: in the series on MTB (ref Gill et al., 2008), the “MIC, tuberculosis” value is 6.25 µg/mL (≈ 15.4 µM).
In the case of `NNC(=O)c1ccncc1` [INH, isoniazid, reference compound], the MIC came to 0.1 µg/mL (≈ 0.729 µM) against M. tuberculosis H37Rv, 0.1 µg/mL (≈ 0.729 µM) in the series with M. abscessus and 0.05 µg/mL (≈ 0.365 µM) in the series with M. bovis BCG. Besides, the IC50 at MTB InhA came to 240 ± 10 nM.
Regarding `Cc1c(-c2cc(C(=O)O)c3cc(Br)ccc3n2)nnn1-c1ccc(Br)cc1` [Compound 5w, 6-Bromo-2-(1-(4-bromophenyl)-5-methyl-1H-1,2,3-triazol-4-yl)benzo [b]pyridine-4-carboxylic acid], the melting point was greater than 300 °C. Also, the “IC50-L929/MIC Mtb (cytotoxicity / discriminatory index)” value in the series on L929 cells is listed as 10. This compound also showed an MIC against M. tuberculosis H37Rv of 15 µg/mL (≈ 30.7 µM). Also, the MIC in the series with M. abscessus was greater than 125 µg/mL. Further, in the series on M. bovis BCG, the MIC is less than 125 µg/mL.
In the case of `CC(C)c1ccc2nc(-c3ccc4ccc5ccccc5c4c3)cc(C(=O)O)c2c1` [Compound II], the “MIC against MTB” value in the series on MTB (ref Quimque et al., 2023) was “around 16 μM”.
As for `Cc1c(-c2cc(C(=O)O)c3cc(Br)ccc3n2)nnn1-c1ccc(Cl)cc1` [Compound 5v, 6-Bromo-2-(1-(4-chlorophenyl)-5-methyl-1H-1,2,3-triazol-4-yl)benzo [b]pyridine-4-carboxylic acid], the melting point is greater than 300 °C. The “IC50-L929/MIC Mtb (cytotoxicity / discriminatory index)” value in the series with L929 cells was determined as 13. The MIC against M. tuberculosis H37Rv stood at 15 µg/mL (≈ 33.8 µM). Moreover, in the series with M. abscessus, the MIC is greater than 125 µg/mL. Further, in the series with M. bovis BCG, the MIC was less than 125 µg/mL.
`Cc1c(-c2cc(C(=O)O)c3cc(Cl)ccc3n2)nnn1-c1ccccc1` [Compound 5i, 6-Chloro-2-(5-methyl-1-phenyl-1H-1,2,3-triazol-4-yl)benzo [b]pyridine-4-carboxylic acid] yielded a melting point greater than 300 °C. Moreover, the “IC50-L929/MIC Mtb (cytotoxicity / discriminatory index)” value in the series on L929 cells stood at 20. In the series with M. tuberculosis H37Rv, this compound gave an MIC of 15 µg/mL (≈ 41.1 µM). The MIC with M. abscessus is greater than 125 µg/mL. At MTB InhA, the 50% inhibitory concentration (IC50) worked out at 11800 ± 490 nM. In the series on M. bovis BCG, the MIC was less than 125 µg/mL.
For `Cc1c(-c2cc(C(=O)O)c3cc(Cl)ccc3n2)nnn1-c1cccc(Cl)c1` [Compound 5k, 6-Chloro-2-(1-(3-chlorophenyl)-5-methyl-1H-1,2,3-triazol-4-yl)benzo [b]pyridine-4-carboxylic acid], the melting point is greater than 300 °C. Further, in the series with L929 cells, the “IC50-L929/MIC Mtb (cytotoxicity / discriminatory index)” value turned out to be 13. The MIC against M. tuberculosis H37Rv amounted to 15 µg/mL (≈ 37.6 µM). Moreover, the MIC with M. abscessus is greater than 125 µg/mL. Also, in the series on M. bovis BCG, the MIC was less than 125 µg/mL.
Turning to `O=C(N/N=C/c1cn(-c2ccc(Cl)cc2)nn1)c1ccncc1` [compound VI], the “MIC, MTB H37Rv strain” value in the series on MTB (MTB H37Rv, ref Boechat et al., 2011) was 0.62 µg/mL (≈ 1.9 µM).
On to `Cc1c(-c2cc(C(=O)O)c3cc(Cl)ccc3n2)nnn1-c1ccc(Cl)cc1` [Compound 5n, 6-Chloro-2-(1-(4-chlorophenyl)-5-methyl-1H-1,2,3-triazol-4-yl)benzo [b]pyridine-4-carboxylic acid], for which the “IC50-L929/MIC Mtb (cytotoxicity / discriminatory index)” value with L929 cells is reported as 16. Moreover, the MIC against M. tuberculosis H37Rv is 12.5 µg/mL (≈ 31.3 µM); in the series with M. abscessus, greater than 125 µg/mL; in the series on M. bovis BCG, less than 125 µg/mL. The 50% inhibitory concentration (IC50) at MTB InhA came to 720 ± 30 nM.
The compound `Cc1c(-c2cc(C(=O)O)c3ccccc3n2)nnn1-c1ccc(Br)cc1` [Compound 5g, 2-(1-(4-Bromophenyl)-5-methyl-1H-1,2,3-triazol-4-yl)benzo [b]pyridine-4-carboxylic acid] registered a melting point of 228 to 229 °C. For the same compound, the “IC50-L929/MIC Mtb (cytotoxicity / discriminatory index)” value in the series with L929 cells was found to be 20. For the same compound, the MIC against M. tuberculosis H37Rv was 15 µg/mL (≈ 36.7 µM). Moreover, the MIC with M. abscessus is greater than 125 µg/mL. For the same compound, the IC50 at MTB InhA worked out at 4130 ± 170 nM. Also, the MIC with M. bovis BCG was less than 125 µg/mL.
`Cc1c(-c2cc(C(=O)O)c3cc(Cl)ccc3n2)nnn1-c1ccc(Br)cc1` [Compound 5o, 2-(1-(4-Bromophenyl)-5-methyl-1H-1,2,3-triazol-4-yl)-6-chlorobenzo [b]pyridine-4-carboxylic acid] registered a melting point greater than 300 °C. Besides, the “IC50-L929/MIC Mtb (cytotoxicity / discriminatory index)” value in the series on L929 cells is 10. In the series with M. tuberculosis H37Rv, this compound had an MIC of 15 µg/mL (≈ 33.8 µM). Moreover, the MIC with M. abscessus was greater than 125 µg/mL. For the same compound, the MIC in the series on M. bovis BCG was less than 125 µg/mL.

The term IC50 denotes the point on the concentration scale where inhibition reaches its midpoint. By melting point is commonly meant the temperature, or range, at which the solid turns liquid.
